In ChEMBL document CHEMBL1649420, “Identifying chelators for metalloprotein inhibitors using a fragment-based approach” (J Med Chem, 2011):

How the values were obtained:
[1] = target: T1, Tyrosinase (Agaricus bisporus) (UniProt O42713); conditions: at 1 mM;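 note: inhibition measured at 10 min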
T1 sequence (whole entry): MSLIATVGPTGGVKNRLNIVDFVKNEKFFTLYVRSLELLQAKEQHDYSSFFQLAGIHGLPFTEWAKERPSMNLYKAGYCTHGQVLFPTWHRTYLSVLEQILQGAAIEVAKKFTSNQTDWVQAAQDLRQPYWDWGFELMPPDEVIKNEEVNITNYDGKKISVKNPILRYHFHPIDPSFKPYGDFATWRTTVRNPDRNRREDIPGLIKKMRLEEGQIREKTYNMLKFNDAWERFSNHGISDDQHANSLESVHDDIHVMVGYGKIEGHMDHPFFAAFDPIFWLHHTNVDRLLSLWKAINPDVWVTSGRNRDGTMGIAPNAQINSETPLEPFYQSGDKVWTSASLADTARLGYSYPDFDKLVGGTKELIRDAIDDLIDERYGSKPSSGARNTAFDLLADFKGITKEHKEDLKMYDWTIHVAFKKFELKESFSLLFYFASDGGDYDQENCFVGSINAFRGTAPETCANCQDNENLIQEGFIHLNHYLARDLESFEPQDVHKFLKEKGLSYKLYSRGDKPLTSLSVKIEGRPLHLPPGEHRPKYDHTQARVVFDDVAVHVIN

[2] = target: T2, Lethal factor (Bacillus anthracis) (UniProt P15917); conditions: at 1 mM
T2 sequence (whole entry): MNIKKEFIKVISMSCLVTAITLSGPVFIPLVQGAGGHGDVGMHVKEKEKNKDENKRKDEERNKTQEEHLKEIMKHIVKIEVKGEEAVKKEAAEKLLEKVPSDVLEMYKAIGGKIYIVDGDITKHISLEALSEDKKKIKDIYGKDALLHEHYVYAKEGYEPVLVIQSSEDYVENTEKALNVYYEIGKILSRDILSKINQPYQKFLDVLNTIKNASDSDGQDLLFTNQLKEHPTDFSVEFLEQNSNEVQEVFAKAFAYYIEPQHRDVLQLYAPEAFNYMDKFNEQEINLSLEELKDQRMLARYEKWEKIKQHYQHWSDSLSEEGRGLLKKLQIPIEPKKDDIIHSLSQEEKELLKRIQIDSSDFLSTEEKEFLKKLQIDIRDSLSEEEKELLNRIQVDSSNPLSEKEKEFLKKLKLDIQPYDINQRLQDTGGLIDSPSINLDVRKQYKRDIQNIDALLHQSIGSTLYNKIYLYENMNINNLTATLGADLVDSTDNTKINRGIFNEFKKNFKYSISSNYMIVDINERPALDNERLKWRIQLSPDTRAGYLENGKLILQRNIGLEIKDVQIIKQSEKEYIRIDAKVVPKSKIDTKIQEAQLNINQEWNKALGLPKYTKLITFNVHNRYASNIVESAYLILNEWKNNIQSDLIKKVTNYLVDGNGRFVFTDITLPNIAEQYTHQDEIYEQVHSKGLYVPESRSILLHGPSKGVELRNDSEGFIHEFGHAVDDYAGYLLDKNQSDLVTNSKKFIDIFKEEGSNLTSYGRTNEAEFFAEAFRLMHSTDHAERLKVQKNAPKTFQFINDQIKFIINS

[3] = target: T3, Interstitial collagenase (Homo sapiens) (UniProt P03956); conditions: at 1 mM;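 note: recombinant human enzyme, with inhibition measured after 30 min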
T3 sequence (whole entry): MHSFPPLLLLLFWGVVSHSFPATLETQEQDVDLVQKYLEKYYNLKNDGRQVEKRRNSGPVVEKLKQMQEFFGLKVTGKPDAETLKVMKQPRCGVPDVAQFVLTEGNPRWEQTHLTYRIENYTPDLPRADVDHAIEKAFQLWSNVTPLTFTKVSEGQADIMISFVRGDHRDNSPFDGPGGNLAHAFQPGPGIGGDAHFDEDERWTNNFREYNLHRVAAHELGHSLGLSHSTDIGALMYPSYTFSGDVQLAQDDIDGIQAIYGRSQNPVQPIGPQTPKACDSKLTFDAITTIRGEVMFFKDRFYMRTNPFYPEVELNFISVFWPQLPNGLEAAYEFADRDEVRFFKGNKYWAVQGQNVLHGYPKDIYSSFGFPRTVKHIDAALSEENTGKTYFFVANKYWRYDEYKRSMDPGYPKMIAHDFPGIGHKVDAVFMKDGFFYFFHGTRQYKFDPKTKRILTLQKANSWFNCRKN

[4] = target: 72 kDa type IV collagenase (Homo sapiens, UniProt P08253); conditions: at 1 mM;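 note: recombinant human enzyme, inhibition read after a 30 min incubation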
Sequence of 72 kDa type IV collagenase (P08253 110-660 limits assumed): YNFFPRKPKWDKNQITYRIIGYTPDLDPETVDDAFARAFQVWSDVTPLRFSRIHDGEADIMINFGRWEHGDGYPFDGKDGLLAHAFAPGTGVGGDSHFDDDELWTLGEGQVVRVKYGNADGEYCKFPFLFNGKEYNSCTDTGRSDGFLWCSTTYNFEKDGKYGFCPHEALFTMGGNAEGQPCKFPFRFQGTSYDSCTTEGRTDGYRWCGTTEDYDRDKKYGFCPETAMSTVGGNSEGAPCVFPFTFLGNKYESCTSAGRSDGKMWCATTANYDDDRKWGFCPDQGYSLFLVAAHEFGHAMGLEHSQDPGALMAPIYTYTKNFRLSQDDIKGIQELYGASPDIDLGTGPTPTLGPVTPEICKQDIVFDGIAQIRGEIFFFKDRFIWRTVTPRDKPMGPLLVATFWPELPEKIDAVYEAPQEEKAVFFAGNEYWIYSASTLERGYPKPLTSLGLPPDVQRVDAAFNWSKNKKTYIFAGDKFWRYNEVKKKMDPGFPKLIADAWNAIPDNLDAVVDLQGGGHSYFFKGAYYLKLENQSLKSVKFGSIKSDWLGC

[5] = target: Stromelysin-1 (Homo sapiens) (UniProt P08254); conditions: at 1 mM;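 note: recombinant enzyme, inhibition read after a 30 min incubation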
Sequence of Stromelysin-1 (Homo sapiens) (P08254 100-477 limits assumed): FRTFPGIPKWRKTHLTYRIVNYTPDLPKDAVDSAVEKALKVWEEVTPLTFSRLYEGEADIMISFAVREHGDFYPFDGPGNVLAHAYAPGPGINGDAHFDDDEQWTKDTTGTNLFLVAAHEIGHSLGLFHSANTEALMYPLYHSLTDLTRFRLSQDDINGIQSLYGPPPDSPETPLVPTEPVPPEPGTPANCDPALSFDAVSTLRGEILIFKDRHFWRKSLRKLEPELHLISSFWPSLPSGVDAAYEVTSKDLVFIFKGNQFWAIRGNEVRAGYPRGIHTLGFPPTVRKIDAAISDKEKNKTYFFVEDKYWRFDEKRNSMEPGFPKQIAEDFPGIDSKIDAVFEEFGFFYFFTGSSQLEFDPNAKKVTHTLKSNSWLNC

[6] = target: Neutrophil collagenase (Homo sapiens) (UniProt P22894); conditions: at 1 mM;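 note: recombinant human MMP8 enzyme, percent inhibition read after 30 min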
Sequence of Neutrophil collagenase (Homo sapiens) (P22894 101-467 limits assumed): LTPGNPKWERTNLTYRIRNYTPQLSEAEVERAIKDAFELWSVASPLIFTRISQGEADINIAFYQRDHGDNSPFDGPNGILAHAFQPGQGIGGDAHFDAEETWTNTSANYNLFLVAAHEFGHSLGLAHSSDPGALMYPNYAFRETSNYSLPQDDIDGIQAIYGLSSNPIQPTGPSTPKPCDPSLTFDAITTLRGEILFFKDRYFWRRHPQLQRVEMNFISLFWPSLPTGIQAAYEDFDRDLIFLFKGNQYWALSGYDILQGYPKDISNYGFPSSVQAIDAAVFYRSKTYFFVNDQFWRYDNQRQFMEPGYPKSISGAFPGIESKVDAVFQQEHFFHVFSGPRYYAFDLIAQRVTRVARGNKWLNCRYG

[7] = target: Matrix metalloproteinase-9 (Homo sapiens) (UniProt P14780); conditions: at 1 mM;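 note: recombinant human MMP9, activity read after 30 min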
Sequence of Matrix metalloproteinase-9 (Homo sapiens) (P14780 whole entry): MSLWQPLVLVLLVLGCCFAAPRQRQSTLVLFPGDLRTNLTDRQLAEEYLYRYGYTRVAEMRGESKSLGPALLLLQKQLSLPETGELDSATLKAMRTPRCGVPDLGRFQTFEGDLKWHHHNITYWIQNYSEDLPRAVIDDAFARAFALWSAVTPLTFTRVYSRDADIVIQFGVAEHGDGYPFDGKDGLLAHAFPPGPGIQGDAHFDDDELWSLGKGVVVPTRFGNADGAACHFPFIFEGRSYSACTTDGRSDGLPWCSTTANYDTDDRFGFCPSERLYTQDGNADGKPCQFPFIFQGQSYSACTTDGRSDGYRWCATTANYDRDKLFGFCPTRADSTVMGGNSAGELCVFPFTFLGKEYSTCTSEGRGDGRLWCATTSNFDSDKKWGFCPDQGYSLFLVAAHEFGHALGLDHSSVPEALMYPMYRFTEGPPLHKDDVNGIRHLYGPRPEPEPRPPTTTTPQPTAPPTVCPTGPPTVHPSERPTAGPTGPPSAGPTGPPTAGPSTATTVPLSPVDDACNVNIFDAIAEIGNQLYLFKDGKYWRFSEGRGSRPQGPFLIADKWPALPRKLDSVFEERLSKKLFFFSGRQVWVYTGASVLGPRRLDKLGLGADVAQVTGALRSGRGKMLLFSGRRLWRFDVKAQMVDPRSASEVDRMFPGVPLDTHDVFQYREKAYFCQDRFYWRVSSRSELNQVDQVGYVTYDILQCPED

[8] = target: T4, Nitric oxide synthase, inducible (Mus musculus) (UniProt P29477); conditions: at 1 mM;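 note: recombinant enzyme, activity read out colorimetrically after 40 min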
T4 sequence (whole entry): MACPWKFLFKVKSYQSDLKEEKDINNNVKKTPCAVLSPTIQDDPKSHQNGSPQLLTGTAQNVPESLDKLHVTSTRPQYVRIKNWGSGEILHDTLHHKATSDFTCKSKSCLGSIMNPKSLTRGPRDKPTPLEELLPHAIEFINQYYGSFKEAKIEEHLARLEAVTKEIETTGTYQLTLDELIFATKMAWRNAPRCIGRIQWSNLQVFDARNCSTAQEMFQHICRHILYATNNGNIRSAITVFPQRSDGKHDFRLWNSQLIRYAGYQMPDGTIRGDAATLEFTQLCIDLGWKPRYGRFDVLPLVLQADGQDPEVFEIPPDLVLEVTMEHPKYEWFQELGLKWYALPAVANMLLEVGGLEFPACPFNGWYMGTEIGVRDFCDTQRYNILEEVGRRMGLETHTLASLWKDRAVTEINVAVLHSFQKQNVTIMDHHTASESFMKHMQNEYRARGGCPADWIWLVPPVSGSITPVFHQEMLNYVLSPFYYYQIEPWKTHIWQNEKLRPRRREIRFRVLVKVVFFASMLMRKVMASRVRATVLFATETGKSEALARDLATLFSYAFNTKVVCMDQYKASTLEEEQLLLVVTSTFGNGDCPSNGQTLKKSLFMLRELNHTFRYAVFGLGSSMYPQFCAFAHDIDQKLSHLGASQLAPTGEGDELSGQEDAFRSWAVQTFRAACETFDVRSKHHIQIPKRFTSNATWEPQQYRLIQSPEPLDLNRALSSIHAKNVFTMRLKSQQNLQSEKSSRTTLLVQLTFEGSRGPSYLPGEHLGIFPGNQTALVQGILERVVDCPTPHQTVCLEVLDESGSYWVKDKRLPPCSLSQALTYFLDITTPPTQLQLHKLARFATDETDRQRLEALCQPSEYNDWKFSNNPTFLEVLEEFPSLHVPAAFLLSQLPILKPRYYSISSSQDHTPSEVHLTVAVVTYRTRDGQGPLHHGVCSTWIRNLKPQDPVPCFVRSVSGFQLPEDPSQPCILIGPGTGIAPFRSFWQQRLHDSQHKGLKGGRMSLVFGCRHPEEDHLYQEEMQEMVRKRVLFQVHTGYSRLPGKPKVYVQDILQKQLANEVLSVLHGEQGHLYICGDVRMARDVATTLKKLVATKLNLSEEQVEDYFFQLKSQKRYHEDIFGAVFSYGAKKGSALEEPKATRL

[9] = target: T5, Polyunsaturated fatty acid 5-lipoxygenase (Homo sapiens) (UniProt P09917); assay: Inhibition of human recombinant 5-lipoxygenase at 1 mM after 10 mins by fluorescence assay
T5 sequence (whole entry): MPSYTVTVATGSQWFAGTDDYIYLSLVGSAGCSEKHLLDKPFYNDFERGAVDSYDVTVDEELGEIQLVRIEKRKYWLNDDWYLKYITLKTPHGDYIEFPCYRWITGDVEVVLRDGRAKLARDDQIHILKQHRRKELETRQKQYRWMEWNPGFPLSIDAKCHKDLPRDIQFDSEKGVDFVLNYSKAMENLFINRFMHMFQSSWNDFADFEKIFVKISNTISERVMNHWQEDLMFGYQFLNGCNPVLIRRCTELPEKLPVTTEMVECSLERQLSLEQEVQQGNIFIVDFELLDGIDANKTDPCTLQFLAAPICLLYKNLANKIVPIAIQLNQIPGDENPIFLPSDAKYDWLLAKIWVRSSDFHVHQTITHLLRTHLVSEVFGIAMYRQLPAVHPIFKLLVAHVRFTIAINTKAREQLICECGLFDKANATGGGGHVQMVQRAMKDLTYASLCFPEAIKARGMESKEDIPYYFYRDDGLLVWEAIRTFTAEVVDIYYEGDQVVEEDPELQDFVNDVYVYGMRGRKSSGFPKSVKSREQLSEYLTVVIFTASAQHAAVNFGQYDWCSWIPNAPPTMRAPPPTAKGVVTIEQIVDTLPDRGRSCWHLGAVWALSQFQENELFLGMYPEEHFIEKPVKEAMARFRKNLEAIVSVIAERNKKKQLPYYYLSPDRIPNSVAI

Compound | inhibition [1] | inhibition [2] | inhibition [3] | inhibition [4] | inhibition [5] | inhibition [6] | inhibition [7] | inhibition [8] | inhibition [9]
CC(C)c1cccc(=O)c(O)c1 | 54% | 66% | 95% | 90% | 98% | 100% | 99% | 18% | 
CCc1c(O)c(=O)ccn1C |  | 4% | 34% | 32% | 20% | 34% | 13% | 1% | 78%
O=C(O)c1cccc(=O)n1O | 94% | 47% | 84% | 60% | 86% | 89% | 66% | -5% | 
CCc1occc(=O)c1O | -7% | 25% | 39% | 33% | 38% | 34% | 28% | 8% | 
Cc1ccc2cccc(O)c2n1 |  | 44% | 47% | 65% | 71% | 63% | 34% | 7% | 59%
Cc1occc(=O)c1O | -6% | 19% | 41% | 38% | 34% | 19% | 32% | 6% | 
COc1ccccc1O |  | 13% | 8% | -5% | -4% | 4% | -6% | 13% | 60%
O=C(O)c1ccc2ccccc2n1 | 58% | 45% | 52% | 37% | 73% | 29% | 37% | 11% | 
O=C(O)c1ccc2cccc(O)c2n1 | 75% | 89% | 82% | 84% | 94% | 88% | 68% | 29% | 
OCc1ccnc(-c2cc(CO)ccn2)c1 |  | 9% | 72% | 77% | 96% | 100% | 58% | 21% | 41%
O=c1cc(CO)occ1O |  | 33% | 59% | 52% | 62% | 51% | 49% | -4% | 84%
Cc1cc(=O)c(O)c(CO)o1 | 11% | 14% | 60% | 45% | 47% | 53% | 44% | 9% | 
CCc1c(O)c(=O)ccn1CC |  |  | 25% | 17% | 9% | 31% | 15% | 8% | 83%
Nc1ccc2cccc(O)c2n1 |  | 59% | 96% | 100% | 87% | 91% | 100% | 38% | 66%
O=C(O)c1ccc(O)cc1O | 91% | 7% | 14% | -7% | 3% | -1% | -8% | 16% | 
NC(=O)c1ccccc1O | -8% | 0% | 21% | -1% | 1% | 24% | 23% | 14% | 
c1cnc2c(c1)ccc1cccnc12 |  | 67% | 71% | 100% | 91% | 100% | 86% | 30% | 4%
